Results: publication PMC9958131 (Nature Communications, 2023)
No end group written: not given here. *: point of attachment. Cam = NC(=O)C*

test system: PAD2 / PAD4; assay: Citrullination site mapping of fibrinogen and vimentin by trypsin digestion, protein-level sheet (native, PAD2- and PAD4-citrullinated samples searched together); type: biochemical, Homo sapiens; details: deamidated Arg (= citrullinated) positions found by Sequest HT after trypsin digestion; one list for all six samples (native, PAD2-, PAD4-citrullinated fibrinogen and vimentin); co-purified/contaminant proteins
Source text: (§1) Description: Raw mass spectrometry data for proteolytic mapping of fibrinogen, vimentin, and hnRNP A2/B1 by cathepsins B, S, and H (sheets 1-6); citrullination site mapping of fibrinogen and vimentin by trypsin digestion (sheets 7-8); and the natural antigen processing assay with native, PAD2-citrullinated (PAD2-cit), and PAD4-citrullinated (PAD4-cit) fibrinogen (sheets 9-11).

| Substance | Modifications |
| --- | --- |
| MYLNVIINNTWQGDFSQIKVFLMTLKNMISKLKTECGCQFTSKLEGMFRDMSISNTTMDEFRQHLQATGVSLGGVDLTVRVLTTGYWPTQSATPKCNIPPAPRHAFEIFRRFYLAKHSGRQLTLQHHMGSADLNATFYGPVKKEDGSEVGVGGAQVTGSNTRKHILQVSTFQMTILMLFNNREKYTFEEIQQETDIPERELVRALQSLACGKPTQRVLTKEPKSKEIENGHIFTVNDQFTSKLHRVKIQTVAAKQGESDPERKETRQKVDDDRKHEIEAAIVRIMKSRKKMQHNVLVAEVTQQLKARFLPSPVVIKKRIEGLIEREYLARTPEDRKVYTYVA [Peptide A0A087WTG3] | Deamidated [R283] |
| P22090 (LREC(Cam)LPLIVFLR) [Peptide P22090] | Deamidated [R39] |
| P62269 (IPDWFLNRQK; also: deamidated, site not given here) [Peptide P62269] | Deamidated [R86] |

test system: recombinant human PAD2 and PAD4; assay: Citrullination site mapping by trypsin digestion and mass spectrometry; protein-level modifications over native, PAD2- and PAD4-citrullinated samples combined; type: biochemical; details: trypsin digest, Sequest HT search; co-identified proteins in the fibrinogen and vimentin samples (native, PAD2-cit, PAD4-cit); not split by sample or enzyme
Source text: as §1

| Substance | Modifications (Deamidated [R...] = citrullinated arginine positions found) |
| --- | --- |
| Clusterin | Deamidated [R306; R425] |
| Filaggrin-2 | Deamidated [R63] |
| Glyceraldehyde-3-phosphate dehydrogenase | Deamidated [R80] |
| Heat shock cognate 71 kDa protein | Deamidated [R323] |
| Hornerin | Deamidated [R1507; R2447; R3930] |
| Interleukin-8 | Deamidated [R74] |
| Pre-mRNA-processing-splicing factor 8 | Deamidated [R362] |
| Serotransferrin | Deamidated [R239] |
| Tubulin beta chain | Deamidated [R2; R121; R156; R162] |
| Tubulin beta-2A chain | Deamidated [R2; R121] |

test system: PAD2 and PAD4; assay: Citrullination site mapping of fibrinogen and vimentin by trypsin digestion and mass spectrometry (protein-level sheet, one search over native, PAD2-cit and PAD4-cit samples); type: biochemical, human; details: modified residues found per protein; Deamidated [R..] = deamidated (citrullinated) arginine positions; trypsin digest, Sequest HT; not split by sample (native, PAD2-citrullinated, PAD4-citrullinated fibrinogen and vimentin)
Source text: as §1

| Substance | Modifications |
| --- | --- |
| A0A4W9A917 [Peptide A0A4W9A917] | Deamidated [R365] |
| P01024 [Peptide P01024] | Deamidated [R315; R386; R462; R710; R712; R1134; R1507; R1512; R1532; R1582] |
| P01834 [Peptide P01834] | Deamidated [R1] |
| P01876 [Peptide P01876] | Deamidated [R253; R263; R273] |
| P02751 [Peptide P02751] | Deamidated [R83; R107; R114; R130; R155; R156; R241; R252; R265; R272; R290; R479; R694; R784; R1157; R1197; R1473; R1525; R1543; R1664; R1844; R1909; R1950; R1982; R2165; R2335; R2340; R2357; R2417; R2426; R2447; R2451] |
| P02768 [Peptide P02768] | Deamidated [R105; R122; R138; R141; R169; R281; R434; R452; R469; R509] |
| P04259 (ATGGGLSSVGGGSSTIK) [Peptide P04259] | Deamidated [R182; R222; R326; R369] |
| P04264 (GGGFGGGGIGGGGFGG) [Peptide P04264] | Deamidated [R29; R65; R239; R267; R277; R386; R432; R483; R518; R549] |
| P04275 (IDVPWNVVPEK) [Peptide P04275] | Deamidated [R236; R768; R782; R816; R906; R945; R1204; R1205; R1597; R1641; R1853; R1888; R1916; R1921; R1924; R1943; R1956; R1998; R2099; R2185; R2464; R2535; R2663; R2681; R2730] |
| P05160 (LIENGYFHPVK) [Peptide P05160] | Deamidated [R69; R147; R271; R273; R380; R424; R432; R463; R507; R603] |
| P08779 [Peptide P08779] | Deamidated [R127; R284; R441]; Met-loss+Acetyl [N-Term] |
| P13645 (LQIDNARLAADDF) [Peptide P13645] | Deamidated [R15; R35; R156; R228; R245; R256; R322; R333; R399; R441; R450] |
| P17661 (VELQELNDRFANYIEKVR; also: deamidated, site not given here) [Peptide P17661] | Deamidated [R118; R386] |
| P23142 (VRPIVGPFH) [Peptide P23142] | Deamidated [R90; R179; R181; R287; R289; R343; R353; R467; R561; R562; R582; R642] |
| P35527 (GGGGGGGLGSGGSIRSSY) [Peptide P35527] | Deamidated [R95; R163; R233; R250; R261; R327; R374; R427] |
| P35908 (GPGGFGPGGYPGGIHE) [Peptide P35908] | Deamidated [R45; R122; R221; R238; R247; R341; R384; R524; R544] |
| P41219 (EYQELLNVK) [Peptide P41219] | Deamidated [R397] |
| P48668 (QC(Cam)ASLQAAIADAEQR) [Peptide P48668] | Deamidated [R182; R222; R326] |
| P49771 (LLQETSEQLVALKPWITR; also: deamidated, site not given here) [Peptide P49771] | Deamidated [R81; R85; R100; R147] |
| Q14525 (EVEQWFATQTEELNK) [Peptide Q14525] | Deamidated [R293] |
| Q15323 (LNVEVDAAPTVDLNR) [Peptide Q15323] | Deamidated [R293] |
| Vimentin: recombinant human vimentin (PeproTech), RA autoantigen; native or citrullinated by PAD2 or PAD4 | Deamidated [R13; R23; R28; R36; R45; R50; R64; R69; R71; R78; R100; R113; R122; R145; R155; R158; R159; R170; R175; R184; R186; R196; R207; R217; R222; R270; R273; R304; R310; R320; R321; R342; R345; R364; R378; R381; R401; R410; R424; R440; R450] |

test system: cathepsins B, S, and H; assay: Proteolytic mapping (ProtMap) of native and citrullinated autoantigens by cathepsins B, S, and H with LFQ-MS; type: biochemical, human; details: sites found over all samples of the cathepsin B, H digests, MSFragger search
Experimental: Prior to proteolytic mapping, citrullinated antigens were generated by incubating recombinant human antigens—hnRNP A2/B1 (RA33; custom-made as previously described by in ref. [24]), fibrinogen (Cayman Chemical), and vimentin (PeproTech)—with Sf9-purified peptidylarginine deiminase 2 or 4 (PAD2 or PAD4; Inova) at a 17:1 mass ratio in citrullination buffer (100 mM Tris, 1 mM DTT, 5 mM CaCl2, pH 7.5) for 4 h at 37 °C. Native antigens were diluted in the same buffer without PAD enzymes and without incubation at 37 °C to prevent degradation. Citrullination was confirmed by anti-peptidylcitrulline (clone F95, EMD Millipore) immunoblotting. […] The resulting peptide repertoires were then analyzed by LFQ–MS.
Prior to MS, the samples were reduced and alkylated by incubating in 10 mM Tris (2-Carboxyethyl) phosphine hydrochloride (TCEP, v/v) and 50 mM chloroacetamide (CAA, v/v) for 1 h at room temperature. […] The peptide samples were analyzed on an Orbitrap Fusion Lumos Tribrid mass spectrometer interfaced with an Ultimate 3000 RS Autosampler nanoflow liquid chromatography system (Thermo Scientific). […] The most intense ions with charge states of 2–5 were isolated in a 3-s cycle, fragmented using higher-energy collisional dissociation (HCD) fragmentation with 32% normalized collision energy, and detected at a mass resolution of 50,000 at an m/z of 200. […]

| Substance | Modifications (deamidated arginine = citrullinated sites detected) |
| --- | --- |
| Vimentin: recombinant human vimentin (PeproTech), RA autoantigen; native or citrullinated by PAD2 or PAD4 | Deamidated [R13; R23; R36; R64; R100; R113; R158; R175; R184; R196; R207; R270; R273; R304; R310; R364; R401; R410; R424; R440; R450] |
